Data set [1] can be described thus: Urinary excretion in rats after oral administration. Type of data set: in vivo. The conditions noted are these: rat, urine, 20 mg/kg, bioassay, read-out: Urinary recovery in 24 hours (%).
Protocol: Urine of rats was collected with a urine collector at 0 to 6, and 6 to 24 hours after oral administration of 20 mg/kg of the test antibiotic. The antibiotic levels in the urine samples were bioassayed with the standard solution prepared with M/15 phosphate buffer (pH 7.0) and the urinary recovery in 24 hours was calculated.
A short description of another data set: in vivo. The following applies: rat, po, 20 mg/kg.
The next data set concerns Proteus vulgaris 2. Description: In vitro antibacterial activity, two-fold agar-plate dilution method (MIC). Type of data set: cell-based. The following applies: HI-agar, 37° C., 20 hours, read-out: MIC (minimal inhibitory concentration). As to the method:
(§1) In vitro antibacterial activity was determined by the two-fold agar-plate dilution method as described below.
(§2) One loopful of an overnight culture of each test strain in Trypticase-soy broth (10^8 viable cells per ml) was streaked on heart infusion agar (HI-agar) containing graded concentrations of representative test compound, and the minimal inhibitory concentration (MIC) was expressed in terms of μg/ml after incubation at 37° C. for 20 hours.

The subject of the next data set is Proteus mirabilis 18. Described as above. Type of data set: cell-based. The following applies: HI-agar, 37° C., 20 hours, read-out: MIC (minimal inhibitory concentration). The method, then: as §1, §2

Structures are written as SMILES.

Protocol for in vivo: Rats anesthetized with pentobarbital were fixed in supine position, and a polyethylene cannula was inserted into the bile duct. Bile samples were collected at 0 to 3, 3 to 6, and 6 to 24 hours after oral administration of 20 mg/kg of the test antibiotic. The antibiotic levels in the bile samples were bioassayed with the standard solution prepared with M/15 phosphate buffer (pH 7.0) and the biliary recovery in 24 hours were calculated.

With `Nc1nc(/C(=N/OCC(=O)O)C(=O)NC2C(=O)N3C(C(=O)O)=C(/C=C/Cl)CSC23)cs1` (stereo not drawn) [A, 7-[2-Carboxymethoxyimino-2-(2-aminothiazol-4-yl)acetamido]-3-[(E)-2-chlorovinyl]-3-cephem-4-carboxylic acid (syn isomer)], the results for the dose excreted at 24 h (in data set [1]; in “in vivo”) were 51.1% and 24.2%, respectively. Further, the MIC in the data set with Proteus vulgaris 2 and in the data set on Proteus mirabilis 18 was below 0.025 µg/mL in each case.
